Measured values: patent US20260118350A1, “Fluorescent Probes for Peroxidase-Mediated Fluorescent Signal Amplification” (Seoul National University R&DB Foundation, priority 2024, published 2026)
Entries after “also recorded” stand apart in the source; their conditions may differ.

Legend:
organelle-targeted APEX2 = assay: Fixed-cell FLEX staining of organelle-targeted APEX2-POIs; assay type: cell-based, Human; settings: fixed cells, PHEMS buffer 100 mM pH 7.4
Procedure: HeLa cells were transiently transfected with the APEX2-POI construct using PEI when cells reached approximately 70% confluency, following the protocol provided by the production company of PEI. After transfection and protein expression, the cells were fixed with 4% PFA in 1×DPBS for 15 minutes at room temperature. Subsequently, the cells were washed three times with DPBS. For the APEX reaction, JFT probes (100-500 μM) and H2O2 (0.5-1 mM) were used in 0.1 M PHEMS buffer for the specified time points. […] The detection of JFT fluorescence and immunofluorescence was performed using the GFP channel (excitation at 488 nm), RFP channel (excitation at 561 nm), and Cy5 channel (excitation at 647 nm) of a confocal light microscope 428 (FV3000, Olympus, Japan).
It was assessed whether JFT1 could react with APEX2 targeting various organelles under fixed conditions. […] Furthermore, JFT1 effectively generated a fluorescence signal with the APEX2-tagged POIs (APEX2-POIs) within specific compartments, including the mitochondrial matrix (Matrix-V5-APEX2), nucleus (V5-APEX2-NLS), and ER lumen (SEC61B-V5-APEX2) under fixed-cell conditions. […] These findings validate the wide applicability of JFT1 for APEX2-mediated fluorescence signal amplification (FLEX) in various subcellular organelles. […]

Matrix-V5-APEX2 = assay: Pre-embedding osmium treatment CLEM of JFT1-stained fixed Matrix-V5-APEX2 cells; assay type: cell-based; settings: 500 μM JFT1, 1 mM H2O2, 5 min; 0.4% OsO4, dehydration, resin embedding, 100 nm ultrathin section
Procedure: To obtain the SEM-based CLEM images via pre-embedding osmium treatment procedure (FIG. 2C, lower), cells were fixed with 2.5% glutaraldehyde (Electron Microscopy Sciences, cat. No. 16200) and 2% paraformaldehyde (Electron Microscopy Sciences, cat. No. 19210) in 0.1 M cacodylate solution (pH 7.0) for 30 min at 4° C. After washing, 20 mM glycine solution was used for quenching unreacted aldehyde. Next, JFT1 probe labeling with 500 μM JFT1 and 0.5-1 mM H2O2, was conducted for 5 min. Next, JFT1-labeled cells were post-fixed with 0.4% osmium tetroxide (OsO4) containing 1.5% potassium ferrocyanide in distilled water for 30 min at 4° C. and en bloc in 1% uranyl acetate (EMS, USA, cat. No. 22400) overnight and dehydrated with a graded ethanol series. The samples were then embedded with an EMBed-812 embedding kit (Electron Microscopy Sciences, USA, cat. No. 14120) and polymerized in an oven at 60° C. […]
Given the significance of osmium staining in EM sample preparation, the preservation of JF and JFT1 fluorescence after OsO4 treatment was tested. Remarkably, both JF- and JFT1-stained APEX2-expressing regions retained 70-80% of the original osmium-resistant fluorescence intensity even after osmium treatment (0.1% OsO4), facilitating their detection using confocal microscopy (FIG. 2D). […]

TOM20-V5-APEX2 = assay: Fixed-cell APEX labeling with TOM20-V5-APEX2 (confocal colocalization, line scan); assay type: cell-based, Human
Procedure: HeLa cells were transiently transfected with the APEX2-POI construct using PEI when cells reached approximately 70% confluency, following the protocol provided by the production company of PEI. After transfection and protein expression, the cells were fixed with 4% PFA in 1×DPBS for 15 minutes at room temperature. Subsequently, the cells were washed three times with DPBS. For the APEX reaction, JFT probes (100-500 μM) and H2O2 (0.5-1 mM) were used in 0.1 M PHEMS buffer for the specified time points. The APEX2-mediated reaction was quenched using a quencher solution (a mixture of sodium ascorbate, trolox, and sodium azide, see PMID: 23371551), and the cells were washed three times with DPBS buffer. For immunofluorescence imaging, the cells were permeabilized with −20° C. methanol for 5 minutes, followed by the standard immunofluorescence staining protocol. The detection of JFT fluorescence and immunofluorescence was performed using the GFP channel (excitation at 488 nm), RFP channel (excitation at 561 nm), and Cy5 channel (excitation at 647 nm) of a confocal light microscope 428 (FV3000, Olympus, Japan). […]

[1] = Photophysical properties in buffer (absorption, fluorescence); assay type: physicochemical
Procedure: These photophysical properties render the JF probes suitable for detection in the RFP channel (excitation at 561 nm, fluorescence emission filter: 565-620 nm). […] The absorbance spectra largely shifted from 515 (pH 7.4) to 416 nm when the probe was incubated at pH 6.0. […] This property enables the detection of JF probes in the GFP channel; however, the fluorescence intensity was negligible compared to that of GFP or GFP variant proteins (mEosEM etc.).

OCCn1cc(C[n+]2c(/C=C/c3ccc(O)cc3)sc3ccccc32)nn1 [JFT1, (E)-3-((1-(2-hydroxyethyl)-1H-1,2,3-triazol-4-yl)methyl)-2-(4-hydroxystyryl)benzo[d]thiazol-3-ium]
fluorescence signal in GFP channel (organelle-targeted APEX2): weak green fluorescence signal | fluorescence signal in RFP channel (organelle-targeted APEX2): strong red fluorescence signal | fluorescence signal after pre-embedding steps (Matrix-V5-APEX2): well-preserved | labeling pattern by line scan analysis vs anti-V5 stain (TOM20-V5-APEX2; fixed cells, TOM20-V5-APEX2, RFP signal): most optimal and restricted labeling pattern; also recorded: most well-matched pattern | Pearson correlation coefficient (r) between probe-labeling region (RFP signal) and enzyme-expressed region (anti-V5 stain) (TOM20-V5-APEX2; fixed sample, TOM20-V5-APEX2): 0.91 | green fluorescence Imax ([1]; acidic pH (pH<7), excitation 405 or 450 nm): 520 nm | absorbance spectra maximum ([1]; pH 6.0): 416 nm | absorbance spectra maximum ([1]; pH 7.4): 515 nm
